Results taken from patent US4633014A, “Substituted 3-hydrazinopropionates” (priority 1983, dated 1986).

Assays:
[1] = tested on: arrhythmia induced by an intravenous administration of calcium chloride; test: Antiarrhythmic activity on a model of arrhythmia induced by intravenous calcium chloride (antagonism to calcium) in mice; type: in vivo; settings: white mice, 20-40 minutes before
Method: The specific (antiarrhythmic) effect and acute toxicity were studied.
The antiarrhythmic activity of the compounds according to the present invention was studied on a model of arrhythmia induced by an intravenous administration of calcium chloride. In experiments on white mice of both sexes with a mass of 18-25 g narcotized by urethane (1,200 mg/kg intraperitoneally) ECG in the second standard lead was recorded. A 2% solution of calcium chloride was introduced into the tail vein at a constant rate (0.01 ml for 2 sec). The dose of calcium chloride causing arrhythmia and the dose causing the heart arrest were determined. In the test groups the test compounds were administered intraperitoneally 20-40 minutes before the beginning of the experiment.

in vivo = settings: mouse, in vivo, ip
Method: (§1) The study of the effect provided by the compounds according to the present invention on the cardio-vascular system was carried out in experiments on white mice. The specific (antiarrhythmic) effect and acute toxicity were studied.
(§2) The acute toxicity of the compounds according to the present invention was determined in experiments on white mice with a mass of 20-25 g. The test compounds were administered intraperitoneally in the form of aqueous solutions or suspensions in Twin-80. Observation over the test animals was effected for 10 days.

white mice = test: in vivo
Method: as §1, §2

[2] = white mice, intraperitoneal, relative to quinidine

Structure (SMILES)	Dose of calcium chloride causing arrythmia in animals under experiment ([1]; intraperitoneal dose 5 mg/kg)	Dose of calcium chloride causing death in animals under experiment ([1]; intraperitoneal dose 5 mg/kg)	Dose of calcium chloride causing arrythmia in animals under experiment ([1]; intraperitoneal dose 15 mg/kg)	Dose of calcium chloride causing death in animals under experiment ([1]; intraperitoneal dose 15 mg/kg)	LD50 at 240 h (in vivo) [mg/kg]	Relative toxisity to quinidine (white mice; mouse, in vivo, ip, 14400 min)	Dose of calcium chloride causing arrythmia in animals under experiment ([1]; intraperitoneal dose 25 mg/kg)	Dose of calcium chloride causing death in animals under experiment ([1]; intraperitoneal dose 25 mg/kg)	Relative toxisity to quinidine (white mice; [2])
CNC(=S)N(CCC(N)=O)N(C)C [I-17]	87,5 mg/kg	138 mg/kg	102,0 mg/kg	115 mg/kg	2850	18,3	–	–	–
C=CCNC(=S)N(CCC(N)=O)N(C)C [I-18]	127 mg/kg	160,5 mg/kg	153 mg/kg	168 mg/kg	2900	18,6	–	–	–
CN(C)N(CCC(N)=O)C(=S)Nc1ccccc1 [I-19, 3-(2,2-dimethyl-1-phenylthiocarbamoylhydrazino)propionamide]	98,3 mg/kg	112,0 mg/kg	110,5 mg/kg	130,0 mg/kg	1750	11,2	–	–	–
CC(CN(C(=S)Nc1ccccc1)N(C)C)C(N)=O (stereo not drawn) [I-20, 3-(2,2-dimethyl-1-phenylthiocarbamoylhydrazino)2-methylpropionamide]	102 mg/kg	123 mg/kg	106,4 mg/kg	118,6 mg/kg	1340	8,6	–	–	–
CNC(=O)N(CCC#N)N(C)C [I-21, 3-(2,2-dimethyl-1-methylcarbamoylhydrazino)propionitrile]	87,5 mg/kg	111,5 mg/kg	–	–	1800	11,5	113,6 mg/kg	128,0 mg/kg	–
C=CCNC(=S)N(CCC#N)N(C)C [I-22, 3-(2,2-dimethyl-1-allylthiocarbamoylhydrazino)propionitrile]	92,5 mg/kg	108,0 mg/kg	–	–	1450	9,3	130,0 mg/kg	146,0 mg/kg	–
CN(C)N(CCC#N)C(=S)Nc1ccccc1 [I-23, 3-(2,2-dimethyl-1-phenylthiocarbamoylhydrazino)propionitrile]	86 mg/kg	101,3 mg/kg	–	–	1680	10,7	117,7 mg/kg	119,0 mg/kg	–
COC(=O)CCN(C(C)=O)N(C)C [I-24, 3-(2,2-Dimethyl-1-acetylhydrazino)methylpropionate]	108,0 mg/kg	132,0 mg/kg	116,5 mg/kg	140,3 mg/kg	1300	8,3	–	–	–
CCCC(=O)N(CCC(=O)OC)N(C)C [I-25, 3-(2,2-dimethyl-1-butyrylhydrazino)-methylpropionate]	105,1 mg/kg	112,3 mg/kg	–	–	1750	11,2	77,0 mg/kg	95,0 mg/kg	–
CCCCCC(=O)N(CCC(=O)OC)N(C)C [I-26, 3-(2,2-dimethyl-1-hexanoylhydrazino)methylpropionate]	111,3 mg/kg	138,0 mg/kg	107,6 mg/kg	140,0 mg/kg	630	–	–	–	4,0
CCCCCCCCCCCCCCCC(=O)N(CCC(=O)OC)N(C)C [I-27, 3-(2,2-dimethyl-1-hexadecanoylhydrazino)methylpropionate]	92,7 mg/kg	118,0 mg/kg	109,0 mg/kg	120,6 mg/kg	2380	15,2	–	–	–
CCCCCCCCCCCCCCCCCC(=O)N(CCC(=O)OC)N(C)C [I-28, 3-(2,2-dimethyl-1-octadecanoylhydrazino)methylpropionate]	90,1 mg/kg	108 mg/kg	–	–	6150	39,4	133,8 mg/kg	143 mg/kg	–
COC(=O)CCN(C(=O)c1ccccc1)N(C)C [I-29, 3-(2,2-dimethyl-1-benzoylhydrazino)methylpropionate]	97,6 mg/kg	109,5 mg/kg	–	–	3500	22,4	140,2 mg/kg	142,0 mg/kg	–
COC(=O)CCN(C(=O)Cc1ccccc1)N(C)C [I-30, 3-(2,2-dimethyl-1-benzylcarbonylhydrazino)methylpropionate]	94,0 mg/kg	120,5 mg/kg	102,0 mg/kg	125,0 mg/kg	1200	7,6	–	–	–
COC(=O)CCN(C(=O)c1ccccc1F)N(C)C [I-31, 3-(2,2-dimethyl-I-(2'-fluorophenylcarbonyl)hydrazino)methylpropionate]	88,5 mg/kg	109,0 mg/kg	100,5 mg/kg	112,5 mg/kg	1600	10,2	–	–	–
COC(=O)CCN(C(=O)c1ccc(Br)cc1)N(C)C [I-32, 3-(2,2-dimethyl-1-(4'-bromophenylcarbonyl)hydrazino)methylpropionate]	90,3 mg/kg	105,5 mg/kg	100,0 mg/kg	110,0 mg/kg	1680	10,7	–	–	–
COC(=O)CCN(C(=O)c1ccccc1COC(=O)c1ccccc1)N(C)C [I-33]	87,5 mg/kg	108,6 mg/kg	111,0 mg/kg	132,5 mg/kg	2850	18,2	–	–	–
C=CC(=O)N(CCC(=O)OC)N(C)C [I-34, 3-(2,2-dimethyl-1-acroylhydrazino)-methylpropionate]	108,4 mg/kg	130,0 mg/kg	110,5 mg/kg	136,0 mg/kg	980	6,2	–	–	–
COC(=O)CCN(C(=O)CCO)N(C)C [I-35, 3-(2,2-Dimethyl-1-3'-hydroxypropanoylhydrazino)-methylpropionate]	102,3 mg/kg	120 mg/kg	105,8 mg/kg	132,5 mg/kg	> 3000	> 19,2	–	–	–
COC(=O)CCN(C(=O)OC)N(C)C [I-36, 3-(2,2-dimethyl-1-methoxycarbonylhydrazino)methylpropionate]	94,0 mg/kg	113,6 mg/kg	98,6 mg/kg	118,5 mg/kg	1380	–	–	–	8,8
COC(=O)C(C)CN(C(C)=O)N(C)C (stereo not drawn) [I-37, 3-(2,2-dimethyl-I-acetylhydrazino)-2-methylmethylpropionate]	100 mg/kg	132,0 mg/kg	123 mg/kg	138,0 mg/kg	810	–	–	–	5,1
